Entries after “also recorded” stand apart in the source; their conditions may differ.
Legend:
[1] = Reaction of spin traps with oxidant in CAPD dialysate, ESR detection; details: oxidant system; for final nominal concentration at which spin trap reached an excess: 60 μl dialysate, 25 min at room temperature; for signal/marker ratio: DBNBS at 1.2 mM, DCNBS at 2.5 mM
Method: (§1) ESR spectra were obtained using a prototype spectrometer (Jeol (U.K) Ltd., Welwyn Garden City, England) equipped with a TE011 cylindrical cavity. Samples were analysed at room temperature in a WG-LC-11 quartz flat cell (Wilmad-Glass, Buena, N.J.). In general the instrument parameters were: microwave frequency 9.2 GHz, microwave power 4 mW, centre field (CF) 336.7 mT, sweep width (SW) ±5 mT, number of data points 4095, modulation frequency 100 kHz. For the spin traps reacted with horseradish peroxidase/H2O2/sulphite: sweep time 200 s, time constraint 0.1 s, modulation width 0.05. For the spin traps reacted with the oxidant and NO; sweep time 150 s, time constraint 0.3 s, modulation width 0.2 mT. A JEOL ES-DM1 digital manganese oxide marker (0.03 mm of the glass tube inserted per unit on the dial setting) with a dial setting of 500 was used to ensure the reproducibility between samples and to identify the position of the signals in the microwave field.
Dialysate from a patient with renal failure on Continuous Ambulatory Peritoneal Dialysis (CAPD) was used for this study. The dialysate was collected when the dialysate bag was changed.
Solutions of 10 mM DBNBS and DCNBS (5, 8, 12, 25 and 30 μl for final concentrations of 0.5, 0.8, 1.2, 2.5 and 3.0 mM) were added to 60 μl of the dialysate. The difference in volume comprised PBS. The reaction mixture was mixed thoroughly and analysed by ESR spectroscopy after 25 min incubation at room temperature.

[2] = Reaction of spin traps with nitric oxide, ESR detection; details: for spin trap concentration giving maximum signal intensity / plateau / time at which reaction with NO reaches a maximum: NO 1 mM; for spin trap concentration giving maximum signal intensity / plateau: DBNBS incubated 26 hr, DCNBS 22 hr; for time at which reaction with NO reaches a maximum / limit of detection for NO (S/N ratio equals 3) / limit of quantitation for NO (S/N ratio equals 10): spin trap 0.15M; for time at which reaction with NO reaches a maximum: Tris-HCl pH 7.4; for limit of detection for NO (S/N ratio equals 3) / limit of quantitation for NO (S/N ratio equals 10): DBNBS 50 hr, DCNBS 20 hr, linear part of curve 0 to 10 μM
Method: as §1
The apparatus shown in FIG. 1 was flushed with nitrogen for 15 min. The vacutainer containing deionised water (4 ml) was then connected to the system and flushed with nitrogen for a further 15 min, to remove any oxygen present in the system, and therefore to prevent the formation of nitrogen dioxide. The NO gas was bubbled through the deionised water via the system for 45 min. The small amount of nitrogen dioxide present in the pressurised NO container was removed by bubbling through two bottles of 5M NaOH. The gas was then bubbled through a scrubbing bottle containing deionised water to remove any alkaline aerosol contamination. Any excess of NO after the deionised water step was bubbled through a scrubbing bottle containing 1M potassium permanganate/1M NaOH to prevent excess NO escaping from the fume hood. The concentration of NO in the resulting NO-saturated water was taken to be 2.0 mM.
Samples of DBNBS, DCNBS and DMNBS were weighed into vacutainers and evacuated. Tris-HCl buffer, 0.01M, pH 7.4, was deoxygenated by bubbling with nitrogen gas for 15 min. The deoxygenated buffer was added to the spin traps by a gas tight syringe to give a final spin trap concentration of 0.30M. The spin trap solution was briefly flushed with nitrogen and was then ready for use.
NO-saturated water (1 ml) was added to 1 ml of each of the spin trap solutions (DBNBS, DCNBS and DMNBS). The final concentrations of the spin traps were 0.15M and NO 1 mM. Parallel blanks were carried out by adding 1 ml of deoxygenated water to the spin trap solutions. At each time point samples were taken from test solutions and blanks for ESR spectroscopic analysis and the blank was substracted from the spectra.
The spin trap solutions were prepared as above to give final concentrations of 0.05, 0.1, 0.15, 0.2 and 0.25M in the reaction mixtures and the parallel blanks. The saturated NO solution (0.5 ml, final concentration 1 mM) was added to the test solutions and the deoxygenated water (0.5 ml) was added to the blanks. The reaction mixtures with DBNBS were incubated for 26 hr. while those with DCNBS were incubated for 22 hr. before analysis by ESR spectroscopy. The blanks were subtracted from their parallel test spectra respectively.
The concentration of NO in NO saturated water is taken to be 2.0 mM. This NO solution was diluted with deoxygenated water to give final concentrations in the reaction mixture of 0, 0.25, 0.5, 1, 2.5, 5, 10, 50 and 100 μM. The NO solution was added to DBNBS and to DCNBS to give a final spin trap concentration of 0.15M. The blank (or zero point) was ran by adding 0.5 ml of deoxygenated deionised water to the spin trap solutions. The reaction mixture containing DBNBS was incubated for 50 hr, and that containing DCNBS was incubated for 20 hr. The signal to noise ratio was calculated from each spectrum. All withdrawals and additions of solutions were carried out using a gas-tight syringe.

[3] = Spin trapping of SO3− (horseradish peroxidase/H2O2/sulphite), ESR detection; details: for optimal concentration of spin trap: 25 min incubation at room temperature; for signal/marker ratio: at optimal concentration (DBNBS 17.72 mM, DCNBS 20-25 mM)
Method: as §1
Solutions of the spin traps DBNBS, DCNBS and DMNBS (40 mM) (25, 50, […], 110.75, 125 and 156.25 μl for final concentrations of 4, 8, 14.68, 17.72, 20 and 25 mM in PBS) were added to 8 μl horseradish peroxidase (91 μM in PBS), 8 μl K2SO3 (100 mM in water) and 12.5 μl H2O2 (5 mM in PBS). The difference in the volume comprised PBS (pH 7.4). The final volume of the reaction mixture was 250 μl. The reaction mixture was mixed thoroughly and analysed by ESR spectroscopy after 25 min incubation at room temperature. Controls were run using individual reactants as well as the reaction mixture above in the absence of the spin traps.

[4] = Solubility of the spin trap in aqueous systems; type: physicochemical; details: Sodium Salt

| Structure (SMILES) | final nominal concentration at which spin trap reached an excess [1] | signal/marker ratio [1] | spin trap concentration giving maximum signal intensity / plateau [2] [M] | time at which reaction with NO reaches a maximum [2] | limit of detection for NO (S/N ratio equals 3) [2] [µM] | limit of quantitation for NO (S/N ratio equals 10) [2] [µM] | optimal concentration of spin trap ([3]; SO3− system) [mM] | signal/marker ratio ([3]; SO3− system) | sensitivity relative to DBNBS ([3]; SO3− system, at optimal concentrations) [times] | solubility compared with DBNBS [4] | ESR signal height for SO3− adduct relative to DBNBS-d2-15N ([3]; SO3− generated from HRP, H2O2, SO3 2−) |
| --- | --- | --- | --- | --- | --- | --- | --- | --- | --- | --- | --- |
| O=Nc1c(Br)cc(S(=O)(=O)[O-])cc1Br.[Na+] [DBNBS, 3,5-dibromo-4-nitrosobenzenesulphonate, sodium salt, reference compound] | ca. 1.2 mM | 0.516 | 0.15 | approximately 50 hr | 0.23 | 0.92 | 17.72 | 3.33 | – | – | – |
| O=Nc1c(Cl)cc(S(=O)(=O)[O-])cc1Cl.[Na+] [DCNBS, 3,5-Dichloro-4-nitrosobenzenesulphonate, Sodium Salt] | 2.5 mM | 0.521 | 0.05 to 0.40 | 20 to 24 h | 4.06 | 17.30 | 20 to 25 | 10.62 | 3 | improved solubility; also recorded: more soluble than DBNBS | – |
| Cc1cc(S(=O)(=O)[O-])cc(C)c1N=O.[Na+] [DMNBS, 3,5-Dimethyl-4-nitrosobenzenesulphonate, Sodium Salt] | – | – | – | 24 to 28 h | – | – | – | – | – | – | more than three times |

— patent publication US6767715B2, “Nitroso compounds and their use as spin traps” (Randox Laboratories Ltd., priority 2000, dated 2004)
